Results on six compounds are retold here after EPA's ToxValDB 9.5.

Data set [1] concerns Canidae. Particulars: chronic; duration: 23 weeks; oral; gavage; Beagle.
A further data set has as its system Cricetulus sp. As to conditions: duration: 1 days, injection, Other.
A further data set relates to Monkey. Particulars: chronic, duration: 18 months.
The subject of data set [2] is Mus musculus. As to conditions: for LD50: acute.
Data set [3] concerns Oryctolagus sp.
For data set [4], the system named is Rattus norvegicus. Particulars: for LD50: acute.
The test system of a further data set is Sus scrofa. Particulars: chronic; duration: 123 days; dermal; Not specified.
Data set [5] deals with Rattus norvegicus. As to the kind of experiment: LC0; higher = less toxic. As to conditions: acute; inhalation; Sprague-Dawley.
The test system of data set [6] is Homo sapiens. Particulars: clinical; duration: 16 days; oral; M/F; plasma cholinesterase inhibition.
Data set [7] deals with Rattus norvegicus. As to conditions: repeat dose other; oral.
The subject of data set [8] is Oryctolagus sp. As to conditions: developmental; oral; F; excessive loss of litters.
In data set [9] the test system is Rattus norvegicus. Particulars: Sprague-Dawley.
The test system of data set [10] is Mus musculus. Particulars: uterotrophic, Active.
Data set [11] has as its system Rattus norvegicus. Particulars: uterotrophic, Active.
The test system of data set [12] is Oryctolagus sp. As to conditions: reproduction developmental; duration: 13 days; oral; gavage; Reproduction: Loss of litters.
Data set [13] concerns Mus musculus. As to conditions: developmental; inhalation; M/F; developmental toxicity (skeletal variations).
Data set [14] relates to Rattus norvegicus. Particulars: developmental; oral; drinking water; M/F; reduced pup body weight.
The test system of data set [15] is Homo sapiens. As to conditions: clinical, neurological.
Data set [16] deals with Mus musculus. As to conditions: developmental; duration: 10 days; inhalation; intermittent; Fetus: Decreased birth weight.
For data set [17], the system named is Rattus norvegicus. As to conditions: developmental; oral; drinking water; Fetus: Decreased birth weight.
In data set [18] the test system is Rattus norvegicus. As to the kind of experiment: LD5; higher = less toxic. Particulars: developmental; oral; drinking water; M/F; reduced pup body weight.
The subject of data set [19] is Homo sapiens. As to conditions: clinical; oral; Cholinesterase: Decreased cholinesterase activity.
In data set [20] the test system is Canidae. As to conditions: subchronic; duration: 13 weeks; oral; diet; F; Beagle.
Where [21] appears, read: subchronic, duration: 30 days, dermal, New Zealand.
The mark [22] stands for this setting: chronic, duration: 18 months, oral, gavage, Sprague-Dawley.
[23] abbreviates: subchronic, duration: 13 weeks, inhalation, Sprague-Dawley.

Several values for one entry are separate records, joined by “and”; a condition that tells them apart may be missing. Identical values can stand only once.

Turning to `CS(C)=O` [Dimethyl sulfoxide], the LOAEL in the data set with Canidae [1] came out at 2500 mg/kg-day; with Monkey (oral, gavage), 8910 mg/kg-day; in the data set on Mus musculus [2] (short-term, duration: 3 weeks, oral, gavage, Swiss), 2000 mg/kg-day; in the data set with Oryctolagus sp. [3] (chronic, duration: 6 months, dermal, New Zealand), 1650 mg/kg-day; in the data set on Oryctolagus sp. [3] (chronic, duration: 22 weeks, dermal, New Zealand) it was 1650 mg/kg-day; with Oryctolagus sp. [3] (setting [21]), 5000 mg/kg-day. Also, the LOAEL in the data set on Rattus norvegicus [4] (setting [22]) turned out to be 9900 mg/kg-day. Moreover, the NOAEL is under 5500 mg/kg-day in the data set on Cricetulus sp. (developmental, Intraperitoneal); 2500 mg/kg-day with Cricetulus sp. (developmental, intravenous, intraperitoneal); under 5500 mg/kg-day with Cricetulus sp. (reproduction developmental, Intraperitoneal, F); 2500 mg/kg-day with Cricetulus sp. (reproduction developmental, intravenous, intraperitoneal, F); 8910 mg/kg-day in the data set with Monkey (dermal); 2970 mg/kg-day in the data set with Monkey (oral, gavage). For the same compound, the no-observed-adverse-effect level (NOAEL) in the data set with Mus musculus [2] (developmental, duration: 7 days, oral, gavage, Swiss) came to 12000 mg/kg-day; in the data set on Mus musculus [2] (subchronic, duration: 5 weeks, injection, Intraperitoneal, Swiss), 2500 mg/kg-day; in the data set with Oryctolagus sp. [3] (developmental, duration: 9 days, injection, subcutaneous), 4000 mg/kg-day; in the data set with Oryctolagus sp. [3] (developmental, duration: 9 days, oral, gavage) it was 5000 mg/kg-day; in the data set on Oryctolagus sp. [3] (developmental, injection, subcutaneous) it was 4000 mg/kg-day; in the data set on Oryctolagus sp. [3] (setting [21]), 1000 mg/kg-day. Further, the NOAEL in the data set on Oryctolagus sp. [3] (subchronic, duration: 90 days, dermal, New Zealand) was 2200 mg/kg-day; with Rattus norvegicus [4] (setting [22]), 1100 mg/kg-day; with Rattus norvegicus [4] (developmental, duration: 1 days, injection, subcutaneous, Sprague-Dawley) it was under 10200 mg/kg-day; with Rattus norvegicus [4] (reproduction developmental, duration: 6 days, oral, gavage, Wistar, generation: F1), 10000 mg/kg-day; in the data set on Rattus norvegicus [4] (reproduction developmental, duration: 10 days, injection, Intraperitoneal, F), under 2000 mg/kg-day; in the data set with Rattus norvegicus [4] (reproduction developmental, oral, gavage, Sprague-Dawley, generation: F0), 5000 mg/kg-day. In addition, the NOAEL stood at 5000 mg/kg-day in the data set on Rattus norvegicus [4] (reproduction developmental, oral, gavage, Sprague-Dawley, generation: F1) and 825 mg/kg-day with Sus scrofa. Besides, the LD50 was 50000 mg/kg in the data set with Mus musculus [2] (dermal); 3100 mg/kg and 5750 mg/kg in the data set with Mus musculus [2] (injection, intravenous); ≥ 19200 mg/kg and ≤ 22000 mg/kg in the data set with Mus musculus [2] (oral); 40000 mg/kg in the data set with Rattus norvegicus [4] (dermal); 5360 mg/kg in the data set on Rattus norvegicus [4] (injection, intravenous); 28300 mg/kg with Rattus norvegicus [4] (oral, gavage). In addition, the NOAEC with Rattus norvegicus [4] (subchronic, duration: 6 weeks, inhalation, Sprague-Dawley) turned out to be 0.2 mg/L; in the data set on Rattus norvegicus [4] (setting [23]) it was 0.964 mg/L. Also, the LOAEC with Rattus norvegicus [4] (setting [23]) came to 2.78 mg/L. The compound further came in with an LC0 with Rattus norvegicus [5] of over 2.9 mg/L.
As for `O=P(O)(O)CCCl` [Ethephon], the LEL with Homo sapiens [6] is 0.5 mg/kg-day.
Turning to `COc1ccc(C(c2ccc(OC)cc2)C(Cl)(Cl)Cl)cc1` [Methoxychlor], the LOAEL in the data set on Rattus norvegicus [7] turned out to be 8 mg/kg-day; in the data set on Rattus norvegicus [9] (reproduction developmental, duration: 364 days, oral, gavage, M/F, reproductive), 5 mg/kg-day. In the data set on Rattus norvegicus [7], the NOAEL was 4 mg/kg-day. The LEL in the data set with Oryctolagus sp. [8] was 35.5 mg/kg-day; in the data set with Mus musculus [10] (duration: 3 days, oral), 1 mg/day; in the data set on Mus musculus [10] (duration: 4 days, injection, subcutaneous) it was 100 mg/kg-day; in the data set with Mus musculus [10] (duration: 5 days, injection, subcutaneous), 10 mg/kg-day; with Rattus norvegicus [11] (duration: 1 days, injection, intraperitoneal), 10 mg and 5 mg/day; in the data set with Rattus norvegicus [11] (duration: 1 days, oral), 125 mg/kg-day. The LEL in the data set on Rattus norvegicus [11] (duration: 4 days, injection, intraperitoneal) is 0.75 mg/kg-day; with Rattus norvegicus [11] (duration: 7 days, injection, subcutaneous) it was 100 mg/kg-day; in the data set with Rattus norvegicus [11] (duration: 7 days, oral), 50 mg/kg-day; in the data set on Rattus norvegicus [11] (duration: 42 days, oral, diet) it was 500 ppm; in the data set with Rattus norvegicus [11] (duration: 98 days, oral, diet) it was 1500 ppm. Moreover, the NOEL in the data set with Oryctolagus sp. [8] and with Oryctolagus sp. [12] was 5.01 mg/kg-day throughout.
For `CCC(C)=O` [Methyl ethyl ketone], the LOAEL in the data set with Rattus norvegicus [7] was found to be 4570 mg/kg-day; in the data set on Rattus norvegicus [14] it was 1770 mg/kg-day; with Homo sapiens [15] (duration: 6 hours, inhalation, M/F), 292 mg/m3. For the same compound, the NOAEL stood at 1770 mg/kg-day in the data set on Rattus norvegicus [7], 594 mg/kg-day in the data set with Rattus norvegicus [14], 2980 mg/m3 with Mus musculus [16] and 1710 mg/kg-day in the data set on Rattus norvegicus [17]. Moreover, the LEC in the data set with Mus musculus [13] was 5200 mg/m3. Besides, the LD5 in the data set with Rattus norvegicus [18] came to 639 mg/kg-day.
With `CCOP(=S)(OCC)Oc1ccc([N+](=O)[O-])cc1` [Parathion], the NOAEL in the data set with Homo sapiens [15] (duration: 30 days, oral, capsule, M) amounted to 0.09 mg/kg-day; in the data set with Rattus norvegicus [9] (subchronic, duration: 6 weeks, inhalation, whole body, M, neurological), 0.01 mg/m3; in the data set on Homo sapiens [19], 0.064 mg/kg-day.
Regarding `c1ccc2c(c1)Nc1ccccc1S2` [Phenothiazine], the NOAEL in the data set with Canidae [20] is 1.59 mg/kg-day.
